Laboratory results: publication PMC10066365, “Nemacol is a small molecule inhibitor of C. elegans vesicular acetylcholine transporter with anthelmintic potential” (Nature Communications, 2023)
Several values for one entry are separate records, joined by “and”; a condition that tells them apart may be missing. Equal values may be shown once. Read-outs that look alike come from different tables or passages of the source.

Columns and labels:
[1] = system: Dirofilaria immitis L3/L4; experiment: Dirofilaria immitis L3/L4 motility assay (DiroImager, 72 h); conditions: Dirofilaria immitis L4
[2] = system: C. elegans; experiment: C. elegans motor phenotype scoring on solid media (Punc/jerky-unc, coiled, paralyzed), wild-type young adults; format: in vivo, Caenorhabditis elegans; conditions: for atypical locomotion (number of animals) / coiled (number of animals) / no phene (number of animals) / paralyzed (number of animals) / any phene: mean % fraction of young adults exhibiting any phenotype (coiled, jerky-Unc or paralyzed): one hour; for atypical locomotion (number of animals) / coiled (number of animals) / no phene (number of animals) / paralyzed (number of animals): young adults, 20 animals per trial, single technical replicate; for any phene: mean % fraction of young adults exhibiting any phenotype (coiled, jerky-Unc or paralyzed): mean of three biological replicates; for EC50: Caenorhabditis elegans, any motor phenotype after 1 h on solid media, ± 95% CI, read-out: C. elegans - motor disruption EC50
[3] = system: Pristionchus pacificus; experiment: Pristionchus pacificus motor disruption dose-response on solid media, 1 h; conditions: for EC50: Pristionchus pacificus, 1 h, read-out: P. pacificus motor disruption EC50; for mean % any phene: any phenotype (coiled, jerky-Unc or paralyzed) at one hour, mean of three biological replicates; for rep 1 atypical locomotion / rep 1 coiled / rep 1 no phene / rep 1 paralyzed / rep 2 atypical locomotion / rep 2 coiled / rep 2 no phene / rep 2 paralyzed / rep 3 atypical locomotion / rep 3 coiled / rep 3 no phene / rep 3 paralyzed: count of 20 animals per trial, one hour
[4] = molecular target: T1, rat VAChT (Rattus norvegicus, UniProt Q62666); experiment: [3H]Vesamicol competitive radioligand binding, PC12 cells expressing ratVAChT
T1 construct: expressed in transfected cells; host or cells: rat PC12 (PC12 A123.7) cells, stably transfected; shared by Dr. Ali Roghani (Texas Tech University)
T1 sequence (Q62666 1-530): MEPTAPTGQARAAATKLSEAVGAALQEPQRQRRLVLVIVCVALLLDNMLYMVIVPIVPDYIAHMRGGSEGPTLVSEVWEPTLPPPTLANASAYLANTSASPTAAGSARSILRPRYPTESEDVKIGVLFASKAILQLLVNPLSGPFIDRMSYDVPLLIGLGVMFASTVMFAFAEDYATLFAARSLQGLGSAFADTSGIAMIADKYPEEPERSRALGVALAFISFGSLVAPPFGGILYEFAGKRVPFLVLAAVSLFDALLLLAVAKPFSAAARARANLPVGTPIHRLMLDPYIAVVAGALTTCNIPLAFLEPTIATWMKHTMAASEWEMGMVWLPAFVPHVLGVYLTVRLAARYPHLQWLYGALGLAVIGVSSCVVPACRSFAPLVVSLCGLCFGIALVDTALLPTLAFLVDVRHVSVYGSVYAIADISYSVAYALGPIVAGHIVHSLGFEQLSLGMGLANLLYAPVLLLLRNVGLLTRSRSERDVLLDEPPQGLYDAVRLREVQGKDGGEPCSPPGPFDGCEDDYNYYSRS

[5] = system: Dirofilaria immitis microfilariae; experiment: Dirofilaria immitis microfilariae immobility assay (DiroImager, 72 h); conditions: Dirofilaria immitis microfilariae
Summary of the method: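 About 250 freshly purified microfilariae of the Missouri isolate per well in supplemented RPMI 1640, exposed to compound for 72 h. Motility scored by automated whole-plate optical imaging; medium with 1% DMSO as negative control.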

[6] = [3H]Vesamicol binding, PC12, experiment 1, read-out: expt 1 Ki (M) vs. rat VAChT (PC12)
[7] = [3H]Vesamicol binding, PC12, experiment 2, read-out: expt 2 Ki (M) vs. rat VAChT (PC12)
[8] = [3H]Vesamicol binding, rat VAChT (PC12), mean of 2-3 experiments, read-out: mean Ki
[9] = [3H]Vesamicol displacement, mean, read-out: ratVAChT Ki

c1ccc(N2CCN(C3CCCCCC3)CC2)cc1 [Nemacol-59]
% effect (motility), DIROIM L4 ([1]; 10 µM): 30% | % effect (motility), DIROIM L4 ([1]; 50 µM): 25% | atypical locomotion (number of animals) ([2]; 3.75uM): 5 and 4 and 7 and 2 | coiled (number of animals) ([2]; 3.75uM): 0 | no phene (number of animals) ([2]; 3.75uM): 15 and 16 and 13 | paralyzed (number of animals) ([2]; 3.75uM): 0 and 2 | any phene: mean % fraction of young adults exhibiting any phenotype (coiled, jerky-Unc or paralyzed) ([2]; 3.75uM): 24.1667% | atypical locomotion (number of animals) ([2]; 15uM): 15 and 17 and 14 and 16 and 18 | coiled (number of animals) ([2]; 15uM): 0 and 1 and 3 and 2 | no phene (number of animals) ([2]; 15uM): 0 and 2 | paralyzed (number of animals) ([2]; 15uM): 5 and 3 and 0 | any phene: mean % fraction of young adults exhibiting any phenotype (coiled, jerky-Unc or paralyzed) ([2]; 15uM): 98.3333% | atypical locomotion (number of animals) ([2]; 60uM): 1 and 4 and 8 and 5 and 3 | coiled (number of animals) ([2]; 60uM): 12 and 6 and 4 and 7 | no phene (number of animals) ([2]; 60uM): 0 | paralyzed (number of animals) ([2]; 60uM): 7 and 10 and 8 and 9 and 11 | EC50 [2]: 5100 ± 500 nM | EC50 [3]: > 60000 nM | mean % any phene ([3]; conc 3.75): 0% | rep 1 atypical locomotion ([3]; conc 3.75): 0 | rep 1 coiled ([3]; conc 3.75): 0 | rep 1 no phene ([3]; conc 3.75): 20 | rep 1 paralyzed ([3]; conc 3.75): 0 | rep 2 atypical locomotion ([3]; conc 3.75): 0 | rep 2 coiled ([3]; conc 3.75): 0 | rep 2 no phene ([3]; conc 3.75): 20 | rep 2 paralyzed ([3]; conc 3.75): 0 | rep 3 atypical locomotion ([3]; conc 3.75): 0 | rep 3 coiled ([3]; conc 3.75): 0 | rep 3 no phene ([3]; conc 3.75): 20 | rep 3 paralyzed ([3]; conc 3.75): 0 | mean % any phene ([3]; conc 15): 0% | rep 1 atypical locomotion ([3]; conc 15): 0 | rep 1 coiled ([3]; conc 15): 0 | rep 1 no phene ([3]; conc 15): 20 | rep 1 paralyzed ([3]; conc 15): 0 | rep 2 atypical locomotion ([3]; conc 15): 0 | rep 2 coiled ([3]; conc 15): 0 | rep 2 no phene ([3]; conc 15): 20 | rep 2 paralyzed ([3]; conc 15): 0 | rep 3 atypical locomotion ([3]; conc 15): 0 | rep 3 coiled ([3]; conc 15): 0 | rep 3 no phene ([3]; conc 15): 20 | rep 3 paralyzed ([3]; conc 15): 0 | mean % any phene ([3]; conc 60): 5.833% | rep 1 atypical locomotion ([3]; conc 60): 4 and 2 | rep 1 coiled ([3]; conc 60): 0 | rep 1 no phene ([3]; conc 60): 16 and 18 | rep 1 paralyzed ([3]; conc 60): 0 | rep 2 atypical locomotion ([3]; conc 60): 0 | rep 2 no phene ([3]; conc 60): 19 and 20 | rep 2 paralyzed ([3]; conc 60): 0 | rep 3 atypical locomotion ([3]; conc 60): 0 | rep 3 coiled ([3]; conc 60): 0 | rep 3 no phene ([3]; conc 60): 20 | rep 3 paralyzed ([3]; conc 60): 0 | Ki [4, 6]: 1.85e-06 M | Ki [4, 7]: 1.68e-06 M | Ki [4, 8]: 1.76e-06 M | Ki [4, 9]: 1.76e-06 M | % effect (motility), DIROIM MF ([5]; 0.016 µM): 0% | % effect (motility), DIROIM MF ([5]; 0.08 µM): 0% | % effect (motility), DIROIM MF ([5]; 0.4 µM): 0% | % effect (motility), DIROIM MF ([5]; 2 µM): 0% | % effect (motility), DIROIM MF ([5]; 10 µM): 0%

c1ccc(N2CCN(CC3CCCC3)CC2)cc1 [Nemacol-62]
% effect (motility), DIROIM L4 ([1]; 10 µM): 5% | % effect (motility), DIROIM L4 ([1]; 50 µM): 11% | atypical locomotion (number of animals) ([2]; 3.75uM): 0 and 2 | coiled (number of animals) ([2]; 3.75uM): 0 and 1 | no phene (number of animals) ([2]; 3.75uM): 20 and 17 and 18 | paralyzed (number of animals) ([2]; 3.75uM): 0 | any phene: mean % fraction of young adults exhibiting any phenotype (coiled, jerky-Unc or paralyzed) ([2]; 3.75uM): 4.167% | atypical locomotion (number of animals) ([2]; 15uM): 13 and 10 and 6 and 17 | coiled (number of animals) ([2]; 15uM): 0 and 1 and 4 and 3 | no phene (number of animals) ([2]; 15uM): 5 and 8 and 13 and 10 and 0 | paralyzed (number of animals) ([2]; 15uM): 2 and 0 and 4 | atypical locomotion (number of animals) ([2]; 60uM): 0 and 4 and 2 and 1 | coiled (number of animals) ([2]; 60uM): 12 and 8 and 15 and 17 and 7 and 5 | no phene (number of animals) ([2]; 60uM): 0 | paralyzed (number of animals) ([2]; 60uM): 8 and 3 and 2 and 9 and 14 | EC50 [2]: 11200 ± 4400 nM | EC50 [3]: 35200 ± 7500 nM | mean % any phene ([3]; conc 3.75): 0% | rep 1 atypical locomotion ([3]; conc 3.75): 0 | rep 1 coiled ([3]; conc 3.75): 0 | rep 1 no phene ([3]; conc 3.75): 20 | rep 1 paralyzed ([3]; conc 3.75): 0 | rep 2 atypical locomotion ([3]; conc 3.75): 0 | rep 2 coiled ([3]; conc 3.75): 0 | rep 2 no phene ([3]; conc 3.75): 20 | rep 2 paralyzed ([3]; conc 3.75): 0 | rep 3 atypical locomotion ([3]; conc 3.75): 0 | rep 3 coiled ([3]; conc 3.75): 0 | rep 3 no phene ([3]; conc 3.75): 20 | rep 3 paralyzed ([3]; conc 3.75): 0 | mean % any phene ([3]; conc 15): 3.333% | rep 1 coiled ([3]; conc 15): 0 | rep 1 no phene ([3]; conc 15): 20 and 19 | rep 1 paralyzed ([3]; conc 15): 0 | rep 2 atypical locomotion ([3]; conc 15): 2 and 1 | rep 2 coiled ([3]; conc 15): 0 | rep 2 no phene ([3]; conc 15): 18 and 19 | rep 2 paralyzed ([3]; conc 15): 0 | rep 3 atypical locomotion ([3]; conc 15): 0 | rep 3 coiled ([3]; conc 15): 0 | rep 3 no phene ([3]; conc 15): 20 | rep 3 paralyzed ([3]; conc 15): 0 | mean % any phene ([3]; conc 60): 89.1667% | rep 1 atypical locomotion ([3]; conc 60): 5 and 6 | rep 1 paralyzed ([3]; conc 60): 11 and 9 | rep 2 atypical locomotion ([3]; conc 60): 14 and 15 | rep 2 coiled ([3]; conc 60): 2 and 3 | rep 2 no phene ([3]; conc 60): 0 | rep 2 paralyzed ([3]; conc 60): 4 and 2 | rep 3 atypical locomotion ([3]; conc 60): 15 and 13 | rep 3 no phene ([3]; conc 60): 5 and 3 | Ki [4, 6]: 2.34e-06 M | Ki [4, 7]: 3.34e-06 M | Ki [4, 8]: 2.84e-06 M | Ki [4, 9]: 2.84e-06 M | % effect (motility), DIROIM MF ([5]; 0.016 µM): 0% | % effect (motility), DIROIM MF ([5]; 0.08 µM): 0% | % effect (motility), DIROIM MF ([5]; 0.4 µM): 0% | % effect (motility), DIROIM MF ([5]; 2 µM): 0% | % effect (motility), DIROIM MF ([5]; 10 µM): 0%
